SMILES strings stand for the structures. Active and inactive are the calls of the source. The rule behind the calls is not given here.

In one test the target is Botulinum neurotoxin type A (Clostridium botulinum) (UniProt P0DPI0). The settings on record: 0.67 to 18 uM.
Chain of Botulinum neurotoxin type A (Clostridium botulinum) (P0DPI0 2-448 limits assumed): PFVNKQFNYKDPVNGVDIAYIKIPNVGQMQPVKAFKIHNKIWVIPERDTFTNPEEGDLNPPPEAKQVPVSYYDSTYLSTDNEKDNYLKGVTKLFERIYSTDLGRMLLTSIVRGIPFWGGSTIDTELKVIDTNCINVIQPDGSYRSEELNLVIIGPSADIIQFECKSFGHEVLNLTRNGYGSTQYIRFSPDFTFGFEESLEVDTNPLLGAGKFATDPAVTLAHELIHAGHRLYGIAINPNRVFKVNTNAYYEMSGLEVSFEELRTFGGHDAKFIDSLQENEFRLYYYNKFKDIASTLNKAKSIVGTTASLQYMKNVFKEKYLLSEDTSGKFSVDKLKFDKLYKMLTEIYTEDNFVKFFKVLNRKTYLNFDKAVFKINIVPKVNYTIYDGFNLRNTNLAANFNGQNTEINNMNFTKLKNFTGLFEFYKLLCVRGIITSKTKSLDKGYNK
For the molecule `C=C(C)[C@@H]1CC[C@]2(COC(=O)CCC(=O)O)CC[C@]3(C)[C@H](CC[C@@H]4[C@@]5(C)CC[C@H](O)C(C)(C)[C@@H]5CC[C@]43C)[C@@H]12`, the inhibition result was “Active”.

Another test deals with Botulinum neurotoxin type A (Clostridium botulinum, UniProt P0DPI0). In words: Inhibition of Clostridium BoNT/A protease light chain.
Chain of Botulinum neurotoxin type A (P0DPI0 2-448 limits assumed): as above
Conditions: not given
Usually IC50 stands for the concentration that gives 50% inhibition. Low values mean inhibition by little substance, high ones a need for much substance. As a reminder, the Ki is the dissociation constant of the complex between target and ligand, obtained from inhibition or displacement. Low readings indicate higher affinity, high ones lower affinity. Consider `C=C(C)[C@@H]1CC[C@]2(C(=O)O)CC[C@]3(C)[C@H](CC[C@@H]4[C@@]5(C)CC[C@H](O)C(C)(C)[C@@H]5CC[C@]43C)[C@@H]12` [BETULINIC ACID], for which the IC50 stood at 20 µM and the Ki worked out at 14.3 µM.

Molecule `C=C(C)[C@@H]1CC[C@]2(COC(=O)COc3cc(C(C)C)ccc3C)CC[C@]3(C)[C@H](CC[C@@H]4[C@@]5(C)CC[C@H](O)C(C)(C)[C@@H]5CC[C@]43C)[C@@H]12` came in with an IC50 of 10 µM and a Ki of 13.3 µM.

`C=C(C)[C@@H]1CC[C@]2(COC(=O)CCC(=O)O)CC[C@]3(C)[C@H](CC[C@@H]4[C@@]5(C)CC[C@H](O)C(C)(C)[C@@H]5CC[C@]43C)[C@@H]12` yielded an IC50 of 1.5 µM and an inhibition constant Ki of 0.8 µM.

With `C=C(C)[C@@H]1CC[C@]2(C(=O)OC)CC[C@]3(C)[C@H](CC[C@@H]4[C@@]5(C)CC[C@H](O)C(C)(C)[C@@H]5CC[C@]43C)[C@@H]12` [METHYL BETULINATE], the half-inhibitory concentration (IC50) is less than 100 µM.

`C=C(C)[C@@H]1CC[C@]2(C(=O)O)CC[C@]3(C)[C@H](CC[C@@H]4[C@@]5(C)CCC(=O)C(C)(C)[C@@H]5CC[C@]43C)[C@@H]12` [BETUNOLIC ACID] had an IC50 of less than 100 µM.

Source of the values: ChEMBL document CHEMBL1759928, “Synthesis and evaluation of library of betulin derivatives against the botulinum neurotoxin A protease” (Bioorg Med Chem Lett, 2011).
